# From patent US20250073250A1, “Improved synthesis of lysine acetylsalicylate - Glycine particles” (AspiAir GmbH, priority 2022, published 2025)
# Like-named read-outs stand apart in the source and are kept apart here.
# What was measured:
# Format in all cases: physicochemical
# [1] = Glass adhesion in 8 mL glass vial (gravimetric)
# Description: After opening the vial and emptying out any non-adhered powder by simple gravitational spill, the vial with the adhered particles inside is weighed again, to thereby gravimetrically determine the weight of the adhered particles. Low glass adhesion facilitates handling of the vials (e.g., better visibility into the vial), and ensures that the complete intended dose is dissolved upon adding water to the vial (rather than, for instance, some material sticking to the upper end of the vial, near the stopper, where the water, that is added into the vial via injection through a needle, may not reach). […] On at least five consecutive days, the vial was manually moved, or rotated, once daily around all its axes to properly disperse the LASAG particles and allow them to coat the inner glass surface. After seven days, the vials were emptied by simply turning them upside down and allowing all non-adhering powder to spill out, or fall out, under gravity, followed by firmly tapping the vial five times onto a solid surface. No noteworthy adhesion to the stopper was observed. The weight of the remainder, i.e., the weight of the LASAG powder still sticking to the glass wall inside the vial after emptying, was determined gravimetrically. The same test was performed with a commercially available Aspirin® i.v. vial.
# [2] = Dissolution on horizontal shaker; details: 1000 mg in 5 mL water, 25 mL test tube, horizontal shaker 1055 rpm, 5 s intervals
# Description: An amount of 5 mL water for injection purposes was added, and the vial shaken in intervals of 5 seconds at 1055 rpm until complete dissolution (no residual solids visible to the human eye). The same test was performed with a commercially available Aspirin® i.v. vial. Each test was repeated at least 3 times per type of LASAG.
# [3] = Particle size distribution (PSD) by laser diffraction; details: for Dv10 / Dv50 / Dv90: volume-based
# Description: Unless mentioned otherwise, the particle size values provided herein (either measured or calculated/derived from measured values) refer to particle diameters and were determined using a laser diffraction device, and its related evaluation software (here, for instance, a Mastersizer® device from Malvern Instruments Ltd.); all laser diffraction measurements complied with ISO-13320 standards. Where referring to the particle size measurements, all percentages provided herein (such as ‘at least 90% of the particles have a particle size of . . . ’) are to be understood as volume-percentages. […] Where available, three or more batches of the substances were tested, and mean values of their PSD-data obtained.
# [4] = Manual dissolution of 1000 mg LASAG in 8 mL glass vial with 5 mL water for injection; details: 1000 mg in 5 mL water for injection, 8 mL vial
# From the text: As mentioned above, by controlling the particle size of the LASAG, it is possible to control parameters such as the dissolution speed (also referred to as dissolution rate). […] Special precautionary measures” that the reconstituted solution should preferably be filtered with a 5 μm filter before its application, as such indicating potential issues with (quick) dissolution. Especially, when considering that LASAG is inter alia employed in the treatment of myocardial infarction, i.e., an acute health crisis where time is of critical importance, a faster, more readily occurring dissolution of the LASAG used, can represent a clinically relevant advantage.
# An amount of 5 mL water for injection purposes was injected through the sealing stopper over the course of about 25-30 seconds, the needle then removed, and the vial shaken, or swirled, manually until complete dissolution (no residual solids visible to the human eye). The same test was performed with a commercially available Aspirin® i.v. vial. Each test was repeated at least 3 times per type of LASAG. This test and the resulting dissolution behaviour are considered similar to what is likely to be observed by, for instance, paramedics in an ambulance or medical staff in hospitals upon dissolving the dry LASAG particles in pre-filled vials by adding water for injection purposes and shaking manually. […]
# [5] = Storage stability in dry state in aluminium-lined polyethylene bags
# Description: At 5±3° C. […] After continuation of the cold storage stability study for a further 12 months, this stability finding is reconfirmed, with the extrapolated value being increased to from 70.9±3.5 months to 200±5 months.
# [6] = Specific surface area by BET gas adsorption
# From the text: Without wishing to be bound by theory, it seems possible that not only the smaller median particle size of the LASAG according to the present invention is responsible for its faster dissolution but also its higher specific surface area.
# [7] = Stability in aqueous solution (salicylic acid content by HPLC)
# Description: Due to its instability in water, LASAG is commonly used as a dry powder, and specifically as a dry powder for reconstitution; in other words, an aqueous solution thereof is not necessarily meant to be stored for extended periods of time but instead is prepared freshly prior to each use. Stability in aqueous solution is nonetheless an important feature for users, for instance, in order to know how long a prepared solution can still be used; a content of ≤1.5 wt.-% of the LASAG-degradant salicylic acid (SA) in a solution is typically considered acceptable. […] In between sample time points, the vials were kept closed.
# The following time points were measured:
# For the HPLC-analysis, an Agilent Zorbax SB-C18 column was used (4.6×250 mm, 5 μm) at 22° C. with isocratic elution over 40 minutes at an eluent flow rate of 1 mL/min. The eluent was an 80 mM ammonium acetate/acetonitrile solution (60:40) prepared by dissolving 4 g ammonium acetate in 600 mL HPLC-grade water, adjusting the pH to 2.0 using trifluoroacetic acid, then adding 400 mL acetonitrile and homogenising the mixture. The injected sample volume was 10 μL. A UV-detector was used at 237 nm to analyse the samples.
# [8] = listed as LASAG 2 (batch in clinical study)
smiles,measurement,setting,value
"CC(=O)Oc1ccccc1C(=O)O.NCC(=O)O.NCCCCC(N)C(=O)O (racemic) [LASAG 2, lysine acetylsalicylate⋅glycine]",weight remaining in the vial (adhering to glass),"[1]; 1000 mg in 8 mL vial, after seven days, emptied and tapped",5.12 ± 0.35 mg
same,glass adhesion per inner glass surface,[1]; inner glass surface approx. 29 cm^2,about 0.177 mg/cm^2
same,time until complete dissolution,[2],18.3 ± 2.9 s
same,1st max. of particle size distribution,[3],20.4 μm
same,1st max. of particle size distribution,[3]; [8],18.7 μm
same,Dv10,[3],4.2 μm
same,Dv50,[3],18.4 μm
same,Dv90,[3],53.3 μm
same,Dv10,[3]; [8],3.8 μm
same,Dv50,[3]; [8],16.3 μm
same,Dv90,[3]; [8],40.4 μm
same,Dv90,[3]; listed as LASAG of the present invention,about 50 μm
same,shaking/swirling motions until complete dissolution,[4]; manual,3-5
same,time from removing the needle until complete dissolution,[4]; manual shaking/swirling,15 to 30 s
same,Time until reaching salicylic acid threshold of 1.5%,"[5]; 5±3° C., extrapolated after continuation of study for a further 12 months",200±5 months
same,Time until reaching salicylic acid threshold of 1.5%,"[5]; 5 ± 3° C., n = 3, extrapolated, listed as LASAG according to present invention",70.9 ± 3.5 months
same,Time until reaching salicylic acid threshold of 1.5%,"[5]; 25 ± 2° C. 60 ± 5% r.h., n = 3",10.3 ± 2.0 months
same,Time until reaching salicylic acid threshold of 1.5%,"[5]; 30 ± 2° C. 65 ± 5% r.h., n = 3",3.5 ± 1.2 months
same,Time until reaching salicylic acid threshold of 1.5%,"[5]; 40 ± 2° C. 75 ± 5% r.h., n = 3",0.2 ± 0.0 months
same,specific surface area,[6],2.4±0.1 m^2/g
same,time at which solution exceeds 1.5 wt.-% salicylic acid content,"[7]; 1.0 g in 5.0 mL water, room temperature (20±5° C.)",about 1 h
same,changes in colour or clarity of solution,[7]; over time range and storage conditions tested,None
